Measurements: the NIST ThermoML archive (doi:10.1021/acs.jced.7b00773)

Settings: Liquid; for viscosity: Concentric cylinders viscometry

C=CCn1cc[n+](C)c1.O=S(=O)([N-]S(=O)(=O)C(F)(F)F)C(F)(F)F
100 kPa
Settings | viscosity [mPa·s]
293.15 K | 40.69
303.15 K | 28.08
313.15 K | 20.31
323.15 K | 15.29
333.15 K | 11.91
343.15 K | 9.52
353.15 K | 7.783
363.15 K | 6.489

Settings | mass density [kg/m3]
293.15 K, 100 kPa, Vibrating tube method | 1506.1
303.15 K, 100 kPa, Vibrating tube method | 1496
312.5 K, 10000 kPa, Bellows volumetry | 1493.8
312.5 K, 20000 kPa, Bellows volumetry | 1501.1
312.5 K, 30000 kPa, Bellows volumetry | 1508
312.5 K, 40000 kPa, Bellows volumetry | 1514.7
312.5 K, 50000 kPa, Bellows volumetry | 1521
312.5 K, 60000 kPa, Bellows volumetry | 1527.1
312.5 K, 70000 kPa, Bellows volumetry | 1533.1
312.5 K, 80000 kPa, Bellows volumetry | 1538.8
312.5 K, 90000 kPa, Bellows volumetry | 1544.2
312.5 K, 100000 kPa, Bellows volumetry | 1549.5
312.5 K, 110000 kPa, Bellows volumetry | 1554.7
312.5 K, 120000 kPa, Bellows volumetry | 1559.7
312.5 K, 130000 kPa, Bellows volumetry | 1564.7
312.5 K, 140000 kPa, Bellows volumetry | 1569.4
312.5 K, 150000 kPa, Bellows volumetry | 1574
312.5 K, 160000 kPa, Bellows volumetry | 1578.6
312.5 K, 170000 kPa, Bellows volumetry | 1583.2
312.5 K, 180000 kPa, Bellows volumetry | 1587.5
312.5 K, 190000 kPa, Bellows volumetry | 1591.8
312.5 K, 200000 kPa, Bellows volumetry | 1596
313.15 K, 100 kPa, Vibrating tube method | 1486
323.15 K, 100 kPa, Vibrating tube method | 1476
332.3 K, 10000 kPa, Bellows volumetry | 1474.5
332.3 K, 20000 kPa, Bellows volumetry | 1482.1
332.3 K, 30000 kPa, Bellows volumetry | 1489.6
332.3 K, 40000 kPa, Bellows volumetry | 1496.7
332.3 K, 50000 kPa, Bellows volumetry | 1503.4
332.3 K, 60000 kPa, Bellows volumetry | 1509.7
332.3 K, 70000 kPa, Bellows volumetry | 1515.8
332.3 K, 80000 kPa, Bellows volumetry | 1521.7
332.3 K, 90000 kPa, Bellows volumetry | 1527.3
332.3 K, 100000 kPa, Bellows volumetry | 1533
332.3 K, 110000 kPa, Bellows volumetry | 1538.5
332.3 K, 120000 kPa, Bellows volumetry | 1543.8
332.3 K, 130000 kPa, Bellows volumetry | 1548.9
332.3 K, 140000 kPa, Bellows volumetry | 1553.7
332.3 K, 150000 kPa, Bellows volumetry | 1558.5
332.3 K, 160000 kPa, Bellows volumetry | 1563.3
332.3 K, 170000 kPa, Bellows volumetry | 1568
332.3 K, 180000 kPa, Bellows volumetry | 1572.5
332.3 K, 190000 kPa, Bellows volumetry | 1576.9
332.3 K, 200000 kPa, Bellows volumetry | 1581.4
333.15 K, 100 kPa, Vibrating tube method | 1466.1
343.15 K, 100 kPa, Vibrating tube method | 1456.3
352.4 K, 10000 kPa, Bellows volumetry | 1455.3
352.4 K, 20000 kPa, Bellows volumetry | 1463.6
352.4 K, 30000 kPa, Bellows volumetry | 1471.5
352.4 K, 40000 kPa, Bellows volumetry | 1479
352.4 K, 50000 kPa, Bellows volumetry | 1486.1
352.4 K, 60000 kPa, Bellows volumetry | 1492.9
352.4 K, 70000 kPa, Bellows volumetry | 1499.3
352.4 K, 80000 kPa, Bellows volumetry | 1505.6
352.4 K, 90000 kPa, Bellows volumetry | 1511.4
352.4 K, 100000 kPa, Bellows volumetry | 1517.2
352.4 K, 110000 kPa, Bellows volumetry | 1522.8
352.4 K, 120000 kPa, Bellows volumetry | 1528.3
352.4 K, 130000 kPa, Bellows volumetry | 1533.5
352.4 K, 140000 kPa, Bellows volumetry | 1538.7
352.4 K, 150000 kPa, Bellows volumetry | 1543.7
352.4 K, 160000 kPa, Bellows volumetry | 1548.5
352.4 K, 170000 kPa, Bellows volumetry | 1553.3
352.4 K, 180000 kPa, Bellows volumetry | 1558
352.4 K, 190000 kPa, Bellows volumetry | 1562.6
352.4 K, 200000 kPa, Bellows volumetry | 1567.1
353.15 K, 100 kPa, Vibrating tube method | 1446.5
363.15 K, 100 kPa, Vibrating tube method | 1436.8
372.5 K, 10000 kPa, Bellows volumetry | 1436.7
372.5 K, 20000 kPa, Bellows volumetry | 1445.3
372.5 K, 30000 kPa, Bellows volumetry | 1453.7
